Laboratory results as given in US20120202847A1, “Novel Tetrahydroisoquinoline Compounds” (priority 2009, published 2012).

target: T1, DGAT1 enzyme (Homo sapiens, UniProt O75907); test: DGAT1 inhibitory activity test; assay type: biochemical; conditions: test compound concentration of 0.05 μg/ml; [14C]-oleoyl-CoA, 23° C., 30 minutes; read-out: Inhibitory Rate
T1 construct: made in house
T1 sequence (O75907 1-488): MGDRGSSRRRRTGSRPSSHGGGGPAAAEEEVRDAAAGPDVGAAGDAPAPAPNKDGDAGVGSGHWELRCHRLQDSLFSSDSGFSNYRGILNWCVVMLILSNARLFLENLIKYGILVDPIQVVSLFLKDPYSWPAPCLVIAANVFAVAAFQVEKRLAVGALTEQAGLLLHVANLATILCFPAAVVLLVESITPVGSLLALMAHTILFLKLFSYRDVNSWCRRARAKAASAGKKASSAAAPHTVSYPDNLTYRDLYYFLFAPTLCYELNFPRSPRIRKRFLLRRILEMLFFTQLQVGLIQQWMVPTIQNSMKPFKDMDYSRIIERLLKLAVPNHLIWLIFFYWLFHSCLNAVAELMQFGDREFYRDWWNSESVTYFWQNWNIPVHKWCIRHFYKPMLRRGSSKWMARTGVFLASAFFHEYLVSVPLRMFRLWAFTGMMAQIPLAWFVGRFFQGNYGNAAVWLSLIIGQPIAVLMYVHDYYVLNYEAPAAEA
Protocol: (1) Preparation of DGAT1 Enzyme
DGAT1 enzyme was prepared and stored according to the method described in US2007/0249620.
(2) DGAT1 Inhibitory Activity Test
A reaction solution having the following composition was incubated at room temperature (23° C.) for 30 minutes: 175 mM Tris-HCl (pH 8.0), 8 mM MgCl2, 1 mg/ml BSA, 0.3 mM 1,2-dioleoyl-sn-glycerol (10-fold concentration of EtOH solution, 10% added), 10 μM [^14C]-oleoyl-CoA (approximately 50 mCi/mmol), 0.5% Triton X-100, the DGAT1 enzyme (10 μg) obtained in Test Example 1(1), and a test compound or vehicle (DMSO/MeOH, 7:3 solution, 5% added), 50 μl in total. A reaction stop solution […] consisting of isopropanol/1-heptane/water (80:20:2, v/v/v) was added to the reaction solution and stirred. Subsequently, water […] and 1-heptane (100 μl) were added thereto and stirred. The 1-heptane layer […] was spotted onto a TLC plate and developed with a developing solvent consisting of 1-hexane/diethyl ether/acetic acid (85:15:1, v/v/v). The radioactivity of the triglyceride fraction was quantified using BAS2500 Bio Image Analyzer (FUJIFILM) and compared with the control. The inhibitory activity of the test compound was calculated according to the formula shown below. In this context, the radioactivity at no reaction (0 minute incubation) was used as background.
Inhibitory Rate=100−[(Radioactivity of sample supplemented with test compound)−(Background)]/[(Radioactivity of control)−(Background)]×100

Inhibition at 0.05 µg/mL, ≥ 50%:
O=C(O)C[C@H]1CC[C@H](OC(=O)N2CCc3cc(NC(=O)Nc4ccc(F)cc4F)ccc3C2)CC1 [Example 1, trans-6-[3-(2,4-difluoro-phenyl)-ureido]-3,4-dihydro-1H-isoquinoline-2-carboxylic acid 4-carboxymethyl-cyclohexyl ester]
O=C(O)C[C@H]1CC[C@H](OC(=O)N2CCc3cc(NC(=O)Nc4cccc(F)c4F)ccc3C2)CC1 [Example 3, trans-6-[3-(2,3-difluoro-phenyl)-ureido]-3,4-dihydro-1H-isoquinoline-2-carboxylic acid 4-carboxymethyl-cyclohexyl ester]
O=C(O)C[C@H]1CC[C@H](OC(=O)N2CCc3cc(NC(=O)Nc4cc(F)ccc4F)ccc3C2)CC1 [Example 4, trans-6-[3-(2,5-difluoro-phenyl)-ureido]-3,4-dihydro-1H-isoquinoline-2-carboxylic acid 4-carboxymethyl-cyclohexyl ester]
O=C(O)C[C@H]1CC[C@H](OC(=O)N2CCc3cc(NC(=O)Nc4c(F)cccc4F)ccc3C2)CC1 [Example 5, trans-6-[3-(2,6-difluoro-phenyl)-ureido]-3,4-dihydro-1H-isoquinoline-2-carboxylic acid 4-carboxymethyl-cyclohexyl ester]
Cc1cccc(NC(=O)Nc2ccc3c(c2)CCN(C(=O)O[C@H]2CC[C@H](CC(=O)O)CC2)C3)c1F [Example 6, trans-6-[3-(2-fluoro-3-methyl-phenyl)-ureido]-3,4-dihydro-1H-isoquinoline-2-carboxylic acid 4-carboxymethyl-cyclohexyl ester]
Cc1ccc(F)c(NC(=O)Nc2ccc3c(c2)CCN(C(=O)O[C@H]2CC[C@H](CC(=O)O)CC2)C3)c1 [Example 7, trans-6-[3-(2-fluoro-5-methyl-phenyl)-ureido]-3,4-dihydro-1H-isoquinoline-2-carboxylic acid 4-carboxymethyl-cyclohexyl ester]
Cc1ccc(NC(=O)Nc2ccc3c(c2)CCN(C(=O)O[C@H]2CC[C@H](CC(=O)O)CC2)C3)c(F)c1 [Example 8, trans-6-[3-(2-fluoro-4-methyl-phenyl)-ureido]-3,4-dihydro-1H-isoquinoline-2-carboxylic acid 4-carboxymethyl-cyclohexyl ester]
Cc1cccc(F)c1NC(=O)Nc1ccc2c(c1)CCN(C(=O)O[C@H]1CC[C@H](CC(=O)O)CC1)C2 [Example 9, trans-6-[3-(2-fluoro-6-methyl-phenyl)-ureido]-3,4-dihydro-1H-isoquinoline-2-carboxylic acid 4-carboxymethyl-cyclohexyl ester]
O=C(O)C[C@H]1CC[C@H](OC(=O)N2CCc3cc(NC(=O)Nc4cccc(Cl)c4F)ccc3C2)CC1 [Example 10, trans-6-[3-(3-chloro-2-fluoro-phenyl)-ureido]-3,4-dihydro-1H-isoquinoline-2-carboxylic acid 4-carboxymethyl-cyclohexyl ester]
O=C(O)C[C@H]1CC[C@H](OC(=O)N2CCc3cc(NC(=O)Nc4ccc(Cl)cc4F)ccc3C2)CC1 [Example 11, trans-6-[3-(4-chloro-2-fluoro-phenyl)-ureido]-3,4-dihydro-1H-isoquinoline-2-carboxylic acid 4-carboxymethyl-cyclohexyl ester]
O=C(O)C[C@H]1CC[C@H](OC(=O)N2CCc3cc(NC(=O)Nc4cc(Cl)ccc4F)ccc3C2)CC1 [Example 12, trans-6-[3-(5-chloro-2-fluoro-phenyl)-ureido]-3,4-dihydro-1H-isoquinoline-2-carboxylic acid 4-carboxymethyl-cyclohexyl ester]
O=C(O)C[C@H]1CC[C@H](OC(=O)N2CCc3cc(NC(=O)Nc4c(F)cccc4Cl)ccc3C2)CC1 [Example 13, trans-6-[3-(2-chloro-6-fluoro-phenyl)-ureido]-3,4-dihydro-1H-isoquinoline-2-carboxylic acid 4-carboxymethyl-cyclohexyl ester]
O=C(O)C[C@H]1CC[C@H](OC(=O)N2CCc3cc(NC(=O)Nc4ccc(F)c(F)c4F)ccc3C2)CC1 [Example 14, trans-6-[3-(2,3,4-trifluoro-phenyl)-ureido]-3,4-dihydro-1H-isoquinoline-2-carboxylic acid 4-carboxymethyl-cyclohexyl ester]
O=C(O)C[C@H]1CC[C@H](OC(=O)N2CCc3cc(NC(=O)Nc4c(F)cc(F)cc4F)ccc3C2)CC1 [Example 15, trans-6-[3-(2,4,6-trifluoro-phenyl)-ureido]-3,4-dihydro-1H-isoquinoline-2-carboxylic acid 4-carboxymethyl-cyclohexyl ester]
O=C(O)C[C@H]1CC[C@H](OC(=O)N2CCc3cc(NC(=O)Nc4ccc(C(F)(F)F)cc4F)ccc3C2)CC1 [Example 16, trans-6-[3-(2-fluoro-4-trifluoromethyl-phenyl)-ureido]-3,4-dihydro-1H-isoquinoline-2-carboxylic acid 4-carboxymethyl-cyclohexyl ester]
O=C(O)C[C@H]1CC[C@H](OC(=O)N2CCc3cc(NC(=O)Nc4ccccc4C(F)(F)F)ccc3C2)CC1 [Example 17, trans-6-[3-(2-trifluoromethyl-phenyl)-ureido]-3,4-dihydro-1H-isoquinoline-2-carboxylic acid 4-carboxymethyl-cyclohexyl ester]
O=C(O)C[C@H]1CC[C@H](OC(=O)N2CCc3cc(NC(=O)Nc4ccc(F)cc4C(F)(F)F)ccc3C2)CC1 [Example 18, trans-6-[3-(4-fluoro-2-trifluoromethyl-phenyl)-ureido]-3,4-dihydro-1H-isoquinoline-2-carboxylic acid 4-carboxymethyl-cyclohexyl ester]
COc1ccc(NC(=O)Nc2ccc3c(c2)CCN(C(=O)O[C@H]2CC[C@H](CC(=O)O)CC2)C3)c(C)c1 [Example 19, trans-6-[3-(4-methoxy-2-methyl-phenyl)-ureido]-3,4-dihydro-1H-isoquinoline-2-carboxylic acid 4-carboxymethyl-cyclohexyl ester]
Cc1ccc(NC(=O)Nc2ccc3c(c2)CCN(C(=O)O[C@H]2CC[C@H](CC(=O)O)CC2)C3)c(Cl)c1 [Example 20, trans-6-[3-(2-chloro-4-methyl-phenyl)-ureido]-3,4-dihydro-1H-isoquinoline-2-carboxylic acid 4-carboxymethyl-cyclohexyl ester]
O=C(O)C[C@H]1CC[C@H](OC(=O)N2CCc3cc(NC(=O)Nc4cccc(C(F)(F)F)c4F)ccc3C2)CC1 [Example 21, trans-6-[3-(2-fluoro-3-trifluoromethyl-phenyl)-ureido]-3,4-dihydro-1H-isoquinoline-2-carboxylic acid 4-carboxymethyl-cyclohexyl ester]
O=C(O)C[C@H]1CC[C@H](OC(=O)N2CCc3cc(NC(=O)Nc4cc(C(F)(F)F)ccc4F)ccc3C2)CC1 [Example 22, trans-6-[3-(2-fluoro-5-trifluoromethyl-phenyl)-ureido]-3,4-dihydro-1H-isoquinoline-2-carboxylic acid 4-carboxymethyl-cyclohexyl ester]
Cc1ccc(NC(=O)Nc2ccc3c(c2)CCN(C(=O)O[C@H]2CC[C@H](CC(=O)O)CC2)C3)c(C)c1 [Example 23, trans-6-[3-(2,4-dimethyl-phenyl)-ureido]-3,4-dihydro-1H-isoquinoline-2-carboxylic acid 4-carboxymethyl-cyclohexyl ester]
O=C(O)C[C@H]1CC[C@H](OC(=O)N2CCc3cc(NC(=O)Nc4ccc(Cl)cc4Cl)ccc3C2)CC1 [Example 24, trans-6-[3-(2,4-dichloro-phenyl)-ureido]-3,4-dihydro-1H-isoquinoline-2-carboxylic acid 4-carboxymethyl-cyclohexyl ester]
